# Assay results as given in publication PMC4880976, “Pharmacologic rationale for the NK1R antagonist, aprepitant as adjunctive therapy in HIV” (Journal of Translational Medicine, 2016).
# Entries after “also recorded” stand apart in the source; their conditions may differ. Where two headings read alike, the source gives them in different places.
# Experiments:
# in vivo = conditions: male, rhesus monkey
# Experimental: A pilot study in two groups of three male Rhesus macaques (Macaca mulatta) was conducted to assess the exposure attained following once daily dosing of 80 and 125 mg aprepitant administered orally for 14 days (n = 3 per dose group). The 80 and 125 mg doses correlate with the human doses recommended for CINV patients (125 mg orally 1 h prior to chemotherapy treatment (day 1) and 80 mg orally once daily in the morning on days 2 and 3). On a weight basis these doses represent approximately 8 and 12.5 mg/kg (weight range, 7–12 kg for the rhesus) compared to 1.14 and 1.79 mg/kg human doses (assuming a 70 kg person). […] Blood was collected for dense PK sampling on days 1, 7 and 14 and trough samples were collected prior to dosing on days 3, 5, 7, 11 and 13.
# Blood was collected for PK sampling on days 1, 7 and 14 and trough samples were collected prior to dosing on days 3, 5, 7, 11 and 13. Viral loads were assessed at 2 and 4 weeks after infection and monthly thereafter. […] Behavioral data were collected using video cameras installed on walls opposite the caging. Videotaping was scheduled to avoid disruptions in daily feedings, routine husbandry and research procedures. Data were collected pre-infection, 2 and 4 weeks post-infection and monthly thereafter. Videotaped recordings were analyzed using Observer XT® (Noldus IT). Animals were sacrificed and necropsied after 1 year.
# anxiety-related behavior = test: Anxiety-related behavior in SIV infected rhesus macaque (video recordings); type: in vivo; conditions: 125 mg/day
# Experimental: Blood was collected for PK sampling on days 1, 7 and 14 and trough samples were collected prior to dosing on days 3, 5, 7, 11 and 13. […] Videotaped recordings were analyzed using Observer XT® (Noldus IT). Animals were sacrificed and necropsied after 1 year.
# Fig. 4 Anxiety-related behavior* time course in SIV infected rhesus macaque receiving aprepitant at 125 mg/day or placebo. *Anxiety-related behavior was calculated based on the following parameters: body shake, hypervigilant scanning, self-licking and self-grooming, scratching, unresponsive inactivity and yawning.
# [1] = parameters: species or system Rhesus macaques; conditions: rhesus monkey, in vivo
# Experimental: For infectivity studies, eight male rhesus macaques were used. Animals were infected intravenously with 50 ng p27 of SIV. […] Aprepitant (commercial capsule contents) was mixed and co-administered with various food preparations to ensure dosing compliance. Food preparations included peanut butter, marshmallow cream and honey, disguised in non-citrus fruit. While formal stability and delivery experiments were not conducted, pilot bioavailability studies confirmed the robustness of aprepitant exposures following food co-administration. The improved bioavailability with food-based dosing in conjunction with oral aprepitant is consistent with preclinical experiments which project simulated exposures based on the commercial nanosized aprepitant formulation. In this evaluation, in silico model predictions were similar to observed in vivo pharmacokinetic data in the fed state; other studies have shown the benefit of complexation strategies to enhance aprepitant solubility/dissolution [30, 31]. […] Videotaped recordings were analyzed using Observer XT® (Noldus IT). Animals were sacrificed and necropsied after 1 year.
# [2] = tested on: PD-1 expression on CD3+CD4+ cells; test: PD-1 expression on CD4+ T-cells in PBMC, flow cytometry; type: cell-based, human
# Experimental: (§1) For cytokine and PD-1 assessment experiments freshly isolated peripheral blood mononuclear cell (PBMC) purchased from the Human Immunology Core Facility of The University of Pennsylvania School of Medicine (Philadelphia, PA) were cultured in RPMI medium supplemented with 10 % FBS overnight. Some cultures were treated with SP (10 µM) aprepitant (10 µM) or DMSO (0.001 %, vehicle for aprepitant). Cytokine concentrations were measured in supernatants using multiplex assay 24 h after SP/aprepitant treatment (see below). For PD-1 expression SP and aprepitant were added at day 0 and PD-1 expression was monitored daily for up to 8 days using flow cytometry.
# Fig. 6 Aprepitant blocks SP induced PD-1 expression on CD4+ T-cells. PBMC were treated for 7 days with SP and aprepitant as indicated. PD-1 expression was measured by flow cytometry on CD3+CD4+ cells and expressed as percentage of PD-1 positive cells. a Results from representative experiment are shown. First two columns show gaiting strategy. […] Median (spread): control 14.7 (11.1), SP treated 38.4 (60.6), SP + aprepitant treated 7.8 (6.0) TEXT PRINTED IN THE PICTURE: (a) SP: PD1+ 67.1 | (a) SP + aprepitant: PD1+ 9.53 DOUBTS OF THE COPYIST ABOUT THIS PICTURE: SP + aprepitant, PD1+ 9.53: the sign after PD1 looks like '+' or '−' because it touches the gate line / SP + aprepitant, 9.53: small print, so the digits 9, 5 and 3 are not fully certain / The rows 'no staining' (PD1+ 0.079) and 'control' (PD1+ 11.4) were left out because they are not substances
# HIV-1 Bal = test: HIV infection of monocyte-derived macrophages (MDM) ex vivo, HIV gag mRNA by real time RT-PCR; type: cell-based
# Experimental: Blood samples were collected from the antecubital vein and monocytes were isolated as described below.
# For HIV infectivity experiments PBMC were isolated from freshly collected blood samples using Ficoll-Paque (GE Healthcare, Uppsala, Sweden) gradient. Monocytes were purified by adhesion as described [26, 27] and cultured in 48-well plates at a density of 0.25 × 10^6/0.5 ml/well in DMEM supplemented with 10 % FBS for 7 days before HIV-1 infection. Macrophages from each subject were exposed to four experimental conditions (none, 1, 5 and 10 µM of aprepitant). 7-day-cultured MDM were incubated with aprepitant for 2 h before infection with HIV-1 Bal (NIH AIDS Reagent Program), 5 ng/well based on p24 antigen assay, corresponding to a MOI of 0.02 determined using MAGI cells expressing CD4 and CCR5 (NIH AIDS Reagent Program). Cells were incubated with virus overnight, and then extensively washed to remove unbound virus. The culture medium and the aprepitant were replaced twice weekly. At day 7 post HIV infection, cellular RNA was extracted from the MDM for assessment of HIV gag mRNA expression using real time RT-PCR assays.
# Total RNA was extracted from MDM cells using RNeasy kit (Qiagen), and the potential DNA contamination was eliminated by on-column DNase digestion as instructed by the manufacturer (Qiagen). Total RNA (1 µg) was reverse transcribed using AffinityScript QPCR cDNA Synthesis kit ([sequence], Cedar Creek, TX) with random primer as instructed by the manufacture. 1 µl of the resulting cDNA was used as a template for real-time PCR amplification. […] Corresponding fragments of assayed genes cloned in pGEM-T vector (Promega) were used to generate standard curves.
# Following differentiation for 7 days MDM were infected with HIV Bal. Macrophages from each subject were exposed to all four experimental conditions as indicated (1, 5 and 10 μM concentrations of aprepitant). Control, HIV infected MDM were treated with aprepitant vehicle, 0.001 % DMSO. RNA was collected 7 days after infection and assayed for expression of HIV GAG by real time RT PCR using the GAPDH housekeeping gene for normalization. GAG expression in control (non-treated) cultures were designated as 100 %; *p < 0.0001 between all groups including control were obtained through one-way ANOVA with post-test analysis by Bonferroni’s Multiple Comparison Test indicating significant difference between all groups in pair wise comparison. b Aprepitant added to DMEM 10 % FBS media or MDM cultures at a concentration of 1 μM (0.53 μg/ml) on day 0 and measured on days 0, 1, 2, 3 and 7. Results are presented as mean ± SD for three independent experiments
# pro-inflammatory markers = tested on: pro-inflammatory markers; parameters: method as in PMID 25915168; conditions: 375 mg daily, 2 weeks, HIV positive individuals; cited from earlier work
# [3] = tested on: CD163 cleavage in human monocytes; test: sCD163 release from human monocytes, ELISA; type: cell-based; conditions: aprepitant 10 μM 30 min before SP 5 μM 60 min, p = 0.004
# Experimental: sCD163 was measured by ELISA (Trillium Diagnostics, Brewer, Maine, USA) according to manufacturer’s recommendations.
# Fig. 7 SP induces cleavage of CD163 in monocytes. sCD163 was measured by ELISA in the supernatant of freshly isolated human monocytes treated with SP and aprepitant as indicated. a Time course of cells treated with varying doses of SP as indicated. *p < 0.001 control versus 5 and 10 μM of SP. b Cells were pre-incubated with aprepitant (10 μM) for 30 min and then treated with SP (5 μM) for 60 min. *p < 0.001 SP versus control, p = 0.004 SP versus SP + aprepitant. Results are presented as mean ± SD from three independent experiments
# human PBMC = test: SP dependent cytokine and chemokine production by PBMC, multiplex assay; type: cell-based; conditions: aprepitant 10 µM with SP 10 µM, 24 h
# Experimental: as §1
# Concentrations of pro-inflammatory cytokines and chemokines in supernatants of human PBMC were measured using human Cytokine/Chemokine Magnetic Bead Panel—Premixed 30 Plex, HCYTMAG-60K-PX30 (Millipore, Billerica, MA, USA) as recommended by the manufacturers.
# Fig. 5 SP dependent up regulation of cytokine and chemokine production by human PBMC* is inhibited by aprepitant. *Freshly isolated PBMC from normal donors were incubated for 24 h with SP and/or Aprepitant (10 µM each) as indicated. Control cultures were either left untreated of incubated with DMSO (vehicle for aprepitant). Pro-inflammatory markers were measured in supernatants using MILLIPORE Human Cytokine/Chemokine Magnetic Bead Panel.
structure (smiles),measurement,setting,value
C[C@@H](O[C@H]1OCCN(Cc2n[nH]c(=O)[nH]2)[C@H]1c1ccc(F)cc1)c1cc(C(F)(F)F)cc(C(F)(F)F)c1 [aprepitant],Kp,in vivo,0.0005 to 0.008
same,decline in trough exposure between days 13 and 14 (extent of induction),in vivo,approximately 32.5%
same,trough plasma concentration reaches steady state,in vivo,≤ 10 days
same,anxiety-related behavior versus control,anxiety-related behavior; after first 4 weeks (weeks 12-20),significant reduction of anxiety
same,anxiety-related behavior versus control,anxiety-related behavior; first 4 weeks after infection,no significant difference
same,"systemic and neuropathology, treated versus untreated",[1],no differences
same,"percentage of PD-1 positive CD4 cells, median (spread)","[2]; SP + aprepitant treated, 7 days, five experiments, control 14.7 (11.1)",7.8 (6.0) %
same,effect on SP induced PD-1 expression,[2]; aprepitant with SP,blocked
same,IC50,"HIV-1 Bal; Human immunodeficiency virus 1, BAL, Macrophage, read-out: free drug IC50 concentration",~0.00265 µg/mL
same,IC50,"HIV-1 Bal; Human immunodeficiency virus 1, BAL, Macrophage, read-out: total IC50 concentration",2.65 µg/mL
same,IC50,"HIV-1 Bal; Human immunodeficiency virus 1, Macrophage, 168 h, human MDM, HIV-1 Bal, gag mRNA day 7, total concentration in DMEM 10 % FBS, read-out: IC50 (ED50 in abstract) for inhibition of HIV infection in MDM",~5 µM
same,IC90,"HIV-1 Bal; Human immunodeficiency virus 1, Macrophage, human MDM, HIV-1 Bal, total concentration, read-out: IC90 for inhibition of HIV infection in MDM",~10 µM
same,"levels of pro-inflammatory cytokines (G-CSF, MIP-1α, IL-6, IL-8, TNFα)",pro-inflammatory markers,reduced levels; also recorded: decrease; also recorded: significant reduction
same,"sCD163, plasma SP and PD-1 expression on CD4 T-cells",pro-inflammatory markers,decrease; also recorded: reduction
same,effect on SP induced sCD163 release,[3],inhibited
same,effect on SP induced cytokine and chemokine production,human PBMC,blocked
